{"source": "patent US6812335B1", "about": "“Human polypeptide receptors for lysophospholipids and sphingolipids and nucleic acids encoding the same” (The Regents of the University of California, priority 1999, dated 2004)", "key": {"[1]": {"test_system": "MCF-7 BCCs", "test": "SRE-firefly luciferase reporter assay in MCF-7 BCCs", "format": "cell-based, human", "details": "for maximal increase of mean luciferase luminometric activity: 10^−10 M to 10^−6 M lipid, 4 h"}, "[2]": {"test_system": "MDA-MB-453 BCCs", "test": "SRE-firefly luciferase reporter assay in MDA-MB-453 BCCs", "format": "cell-based, human", "details": "for mean maximal increase of luciferase luminometric activity: 10^−10 M to 10^−6 M lipid, 4 h"}, "[3]": {"test_system": "MCF-7 BCC", "test": "MCF-7 BCC secretion of IGF-II", "format": "cell-based, human"}, "[4]": {"test_system": "Tsup-1 cells", "test": "Anti-Fas antibody-induced apoptosis of Tsup-1 cell transfectants (DNA endlabeling)", "experimental": "Human CD4+8+3^low T lymphoblasts of the Tsup-1 line were cultured in RPMI-1640 medium (UCSF Cell Culture facility) containing 10% (v:v) fetal bovine serum (FBS), 100 U/ml of penicillin G, 100 ug/ml of streptomycin and 1 mM beta-mercaptoethanol (complete RPMI medium) at 37° C. in 5% CO2 in air. Complete RPMI medium was added to cultures every 2-3 days to maintain a density of 0.5-1×10^6 Tsup-1 cells/ml.\nBriefly, after conditioning at low serum concentrations replicate suspensions of 5×10^5 Tsup-1 cells in 0.5 ml of RPMI-0.1% FBS were incubated in 24-well plastic plates (Falcon, Inc., Oxnard, Calif.) for 16 h at 37° C. in 5% CO2 in air. Some wells were precoated overnight at 4° C. with 30 ng of anti-Fas antibody (Pharmingen, Inc., San Diego, Calif.), 0.2 ug of anti-CD2 antibody (Pharmirigen, Inc., San Diego, Calif.) or a combination of 0.5 ug each of anti-CD3 antibody (Caltag Laboratories, Inc., So. San Francisco, Calif.) and anti-CD28 antibody (Bristol-Myers Squibb Pharmaceutical Research Institute, Seattle, Wash.), and in others 5 uM C6 ceramide was the stimulus for apoptosis.\nTransfections of replicate suspensions of 4×10^6 cells in 2 ml of RPMI-2% FBS cultured as in Example 6 above were carried out by dropwise addition of a 250 ul preincubated mixture of 5 ug of antisense plasmid DNA, 0.2 ug of DNA of the REP 4 plasmid (InVitrogen, San Diego, Calif.) encoding hygromycin resistance and 15 ul of FuGENE 6 non-liposomal lipofection reagent (Boehringer-Mannheim Corp., Indianapolis, Ind.), incubation for 16-24 hours, and washing once and incubation in 4 ml of RPMI-10% FBS with 800 ug/ml of hygromycin for seven additional days. Then the surviving transfectants were washed and cultured in 4 ml of RPMI-0.1% FBS for 16 hours. Antisense plasmids containing full-length cDNA encoding Edg-2, -3, -4 and -5 receptors in the reverse orientation relative to promotors were constructed in the expression vectors pRc/CMV2 for Edg-2, pcDNA 3.1 for Edg-3 and Edg4 (InVitrogen, Inc., Carlsbad, Calif.) and pSV.SPORT1 for Edg-5 (GIBCO BRL, Gaithersburg, Md.) Control cells were sham-transfected with plasmids lacking these antisense inserts.\nBriefly, cells from each well were pelleted at 200×g for 5 min at 4° C., resuspended in 0.5 ml of phosphate-buffered 4% formaldehyde, kept at room temperature for 10 minutes, re-pelleted, resuspended in 150 ul of 80% ethanol and immobilized and dried on poly-L-lysine precoated glass slides. Each slide was rehydrated in 20 mM Tris-130 mM NaCl (pH 7.6), and endogenous peroxidases were inactivated by treatment with 3% H2O2 in 90% methanol for 5 minutes at room temperature prior to endlabeling according to the procedures described in instructions for the Klenow-FragEL kit (Oncogene research Products-Calbiochem, Inc. La Jolla, Calif.). Percentage apoptosis was calculated from the number of Tsup-1 cells with stained nuclei of a total of 200 counted."}, "[5]": {"target": "T1, Edg4 (Homo sapiens, UniProt Q9HBW0)", "T1 construct": "The Edg4 protein consists of 382 amino acids with an estimated molecular weight of 42,626 daltons; expressed in transfected cells; host or cells: Jurkat leukemic T cells, transient transfection with Edg4/EF3 (pCDEF3 vector)", "T1 sequence (Q9HBW0 with tags, fused parts or gaps)": "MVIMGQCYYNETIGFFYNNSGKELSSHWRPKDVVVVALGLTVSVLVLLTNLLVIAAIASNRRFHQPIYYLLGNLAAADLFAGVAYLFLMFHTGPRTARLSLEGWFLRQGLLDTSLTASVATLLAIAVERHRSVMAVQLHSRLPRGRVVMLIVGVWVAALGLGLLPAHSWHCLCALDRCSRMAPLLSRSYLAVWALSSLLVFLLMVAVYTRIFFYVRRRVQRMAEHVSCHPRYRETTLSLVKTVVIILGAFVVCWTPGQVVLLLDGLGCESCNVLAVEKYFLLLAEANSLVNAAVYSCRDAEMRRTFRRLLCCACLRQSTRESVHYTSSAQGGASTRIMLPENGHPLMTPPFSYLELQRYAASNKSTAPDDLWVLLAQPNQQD", "test": "SRE-luciferase reporter gene assay in Edg4-transfected Jurkat cells", "format": "cell-based"}, "[6]": {"test_system": "Tsup-1 cells", "details": "cited from earlier work"}, "[7]": {"target": "T2, Edg2 (Homo sapiens, UniProt Q92633)", "T2 construct": "the 1.1-kb cDNA coding region of human Edg2 was cleaved from Edg2/RSV (An et al., supra) and also subcloned into pCDEF3; expressed in transfected cells; host or cells: Jurkat leukemic T cells, transient transfection with Edg2/EF3 (pCDEF3 vector)", "T2 sequence (Q92633 whole entry)": "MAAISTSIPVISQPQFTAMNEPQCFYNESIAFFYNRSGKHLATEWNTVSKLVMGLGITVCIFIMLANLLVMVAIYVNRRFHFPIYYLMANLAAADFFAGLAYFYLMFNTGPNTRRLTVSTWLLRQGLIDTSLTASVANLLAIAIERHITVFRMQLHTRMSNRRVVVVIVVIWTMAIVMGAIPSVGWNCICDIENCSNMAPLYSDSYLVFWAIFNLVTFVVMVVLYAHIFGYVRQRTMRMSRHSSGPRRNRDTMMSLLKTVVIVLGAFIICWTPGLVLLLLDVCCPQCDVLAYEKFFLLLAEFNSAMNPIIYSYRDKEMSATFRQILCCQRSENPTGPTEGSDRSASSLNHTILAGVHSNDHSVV", "test": "SRE-luciferase reporter gene assay in Edg2-transfected Jurkat cells", "format": "cell-based", "details": "for EC50: 10-h incubation, read-out: EC50 of activation of SRE-driven reporter gene"}, "[8]": {"test_system": "Jurkat cells transfected with empty pCDEF3 vector", "format": "cell-based", "details": "control Jurkat cells"}, "[9]": {"test_system": "control vector-transfected Jurkat cells", "test": "[3H]LPA binding in control vector-transfected Jurkat cells", "procedure": "(§1) Jurkat T cells (2×10^7 in OPTI-MEM) were transfected with 2 μg of Edg4/EF3 or empty pCDEF3 vector for 4 hours at 37° C. using Lipofectin (Life Technologies, Inc). The transfected cells were maintained in RPMI 1640 medium containing 10% fetal bovine serum for 12 hours at 37° C. and washed three times with phosphate-buffered saline (PBS) before assessment of binding. Duplicate 0.2-ml aliquots of 2×10^6 cells were incubated with 200,000 cpm of ]^3H] LPA in 0.25% bovine serum albumnin-phosphate-buffered saline binding buffer for 45 minutes at 0° C. The final concentration of [^3H]LPA in the binding incubations was 10 nM. The binding cell suspensions were passed through GFIC filters that were washed with 12 ml of ice-cold PBS containing 0.05% Tween-20, air-dried, and added to scintillation fluid for quantification of radioactivity bound to the cells. Total and nonspecific binding were evaluated in the absence and the presence of 10 μM nonradioactive LPA, respectively. Specific binding was calculated from the difference in cpm between total binding and nonspecific binding."}, "[10]": {"test_system": "Edg4", "test": "SRE-luciferase reporter gene assay in Edg4-transfected Jurkat cells", "format": "cell-based, human", "details": "Edg4 versus Edg2 transfectants"}, "[11]": {"target": "T1, Edg4", "test": "[3H]LPA receptor binding assay in Edg4-transfected Jurkat cells", "details": "Edg4 transfectants", "procedure": "as §1"}, "[12]": {"details": "Edg-2 & -4 antisense pretreatment, lipid 10^−8 M"}, "[13]": {"details": "Sham transfectants, lipid 10^−8 M, anti-Fas alone = 100%"}, "[14]": {"details": "Sham transfectants, lipid 10^−9 M, anti-Fas alone = 100%"}, "[15]": {"details": "1 μM lipid, Edg4-transfected Jurkat cells"}, "[16]": {"details": "1 μM lipid, Edg2-transfected Jurkat cells"}}, "note": "Values joined by “and” are separate entries in the source; they are usually repeats but may differ in a detail not shown here. Equal entries are not always repeated. Where two headings read alike, the source gives them in different places."}
{"compound": "COc1cccc(-c2cc(=O)c3ccccc3o2)c1N", "note": "[MEK, 2′-amino-3′-methoxyflavone]", "values": [{"measurement": "percentage inhibition of the control SRE reporter response to LPA", "setting": "[1]; 10^−7 M LPA, serum-free DMEM", "value": 41, "unit": "%"}, {"measurement": "percentage inhibition of the control SRE reporter response to S1P", "setting": "[1]; 10^−7 M S1P, serum-free DMEM", "value": 37, "unit": "%"}, {"measurement": "percentage inhibition of the control SRE reporter response to LPA", "setting": "[2]; 10^−7 M LPA, serum-free DMEM", "value": 69, "unit": "%"}, {"measurement": "percentage inhibition of the control SRE reporter response to S1P", "setting": "[2]; 10^−7 M S1P, serum-free DMEM", "value": 61, "unit": "%"}, {"measurement": "inhibition of LPA- and S1P-stimulated secretion of IGF-II", "setting": "[3]", "value": "inhibited"}]}
{"compound": "CCCCCCCCCCCCC/C=C/[C@@H](O)[C@@H](N)COP(=O)(O)O", "note": "[S1P, sphingosine 1-phosphate]", "values": [{"measurement": "percentage of control apoptosis", "setting": "[4]; [12]", "value": 22, "unit": "%"}, {"measurement": "percentage of control apoptosis", "setting": "[4]; Edg-3 & -5 antisense pretreatment, lipid 10^−8 M", "value": "39% and 33%"}, {"measurement": "percentage of control apoptosis", "setting": "[4]; Edg-3 & -5 antisense pretreatment, lipid 10^−9 M", "value": 53, "unit": "%"}, {"measurement": "percentage of control apoptosis", "setting": "[4]; [13]", "value": 18, "unit": "%"}, {"measurement": "percentage of control apoptosis", "setting": "[4]; [14]", "value": 30, "unit": "%"}, {"measurement": "increase in luciferase expression", "setting": "[5]", "value": "failed to generate significant increases"}, {"measurement": "effect on apoptosis evoked by C6-ceramide", "setting": "[6]", "value": "suppressed significantly"}, {"measurement": "effect on apoptosis induced by anti-Fas antibody and a combination of anti-CD3 and anti-CD28 antibodies", "setting": "[6]", "value": "prevent apoptosis"}, {"measurement": "maximal increase of mean luciferase luminometric activity", "setting": "[1]", "value": "≤ 85", "unit": "fold"}, {"measurement": "increase in luciferase expression", "setting": "[7]", "value": "failed to generate significant increases"}, {"measurement": "mean maximal increase of luciferase luminometric activity", "setting": "[2]", "value": 26, "unit": "fold"}, {"measurement": "effect on secretion of IGF-II", "setting": "[3]", "value": "Stimulation"}]}
{"compound": "Lysophosphatidic acid [LPA]", "values": [{"measurement": "percentage of control apoptosis", "setting": "[4]; [12]", "value": 61, "unit": "%"}, {"measurement": "percentage of control apoptosis", "setting": "[4]; Edg-2 & -4 antisense pretreatment, lipid 10^−9 M", "value": 69, "unit": "%"}, {"measurement": "percentage of control apoptosis", "setting": "[4]; [13]", "value": 31, "unit": "%"}, {"measurement": "percentage of control apoptosis", "setting": "[4]; [14]", "value": 51, "unit": "%"}, {"measurement": "change in SRE-luciferase response", "setting": "[8]", "value": "minimal changes"}, {"measurement": "number of LPA-binding sites (receptor density)", "setting": "[9]", "value": "15,000±1300"}, {"measurement": "magnitude of evoked SRE-driven reporter activation of Edg4 relative to that of Edg2", "setting": "[10]", "value": "approximately four times higher"}, {"measurement": "effect on apoptosis evoked by C6-ceramide", "setting": "[6]", "value": "not"}, {"measurement": "effect on apoptosis induced by anti-Fas antibody and a combination of anti-CD3 and anti-CD28 antibodies", "setting": "[6]", "value": "prevent apoptosis"}, {"measurement": "maximal increase of mean luciferase luminometric activity", "setting": "[1]", "value": "up to 37 fold"}, {"measurement": "EC50", "setting": "[7]; Edg2-transfected Jurkat cells", "value": "~10", "unit": "nM"}, {"measurement": "mean maximal increase of luciferase luminometric activity", "setting": "[2]", "value": 24, "unit": "fold"}, {"measurement": "number of LPA-binding sites (receptor density)", "setting": "[11]", "value": "33,000±3200"}, {"measurement": "effect on secretion of IGF-II", "setting": "[3]", "value": "Stimulation"}]}
{"compound": "lysophosphatidyl-choline", "values": [{"measurement": "increase in luciferase expression", "setting": "[5]; [15]", "value": "failed to generate significant increases"}, {"measurement": "increase in luciferase expression", "setting": "[7]; [16]", "value": "failed to generate significant increases"}]}
{"compound": "lysophosphatidyl-ethanolamine", "values": [{"measurement": "increase in luciferase expression", "setting": "[5]; [15]", "value": "failed to generate significant increases"}, {"measurement": "increase in luciferase expression", "setting": "[7]; [16]", "value": "failed to generate significant increases"}]}
{"compound": "lysophosphatidyl-serine", "values": [{"measurement": "increase in luciferase expression", "setting": "[5]; [15]", "value": "failed to generate significant increases"}, {"measurement": "increase in luciferase expression", "setting": "[7]; [16]", "value": "failed to generate significant increases"}]}
{"compound": "phosphatidic acid [PA]", "values": [{"measurement": "EC50", "setting": "[5]; Edg4-transfected Jurkat cells, 10-h incubation, read-out: EC50 of activation of SRE-driven reporter gene", "value": "≥ 500", "unit": "nM"}, {"measurement": "magnitude of evoked SRE-driven reporter activation of Edg4 relative to that of Edg2", "setting": "[10]", "value": "approximately four times higher"}, {"measurement": "EC50", "setting": "[7]; Edg2-transfected Jurkat cells", "value": "≥ 500", "unit": "nM"}]}
